Source: patent US7317038B2, “Nerve regeneration promoters containing semaphorin inhibitor as the active ingredient” (Dainippon Sumitomo Pharma Co., Ltd., priority 2000, dated 2008)
Entries after “also recorded” stand apart in the source; their conditions may differ.

Target: T1, Sema3A (Mus musculus, UniProt O08665)
T1 construct: expressed in transfected cells; host or cells: COS7
T1 sequence (O08665 21-772): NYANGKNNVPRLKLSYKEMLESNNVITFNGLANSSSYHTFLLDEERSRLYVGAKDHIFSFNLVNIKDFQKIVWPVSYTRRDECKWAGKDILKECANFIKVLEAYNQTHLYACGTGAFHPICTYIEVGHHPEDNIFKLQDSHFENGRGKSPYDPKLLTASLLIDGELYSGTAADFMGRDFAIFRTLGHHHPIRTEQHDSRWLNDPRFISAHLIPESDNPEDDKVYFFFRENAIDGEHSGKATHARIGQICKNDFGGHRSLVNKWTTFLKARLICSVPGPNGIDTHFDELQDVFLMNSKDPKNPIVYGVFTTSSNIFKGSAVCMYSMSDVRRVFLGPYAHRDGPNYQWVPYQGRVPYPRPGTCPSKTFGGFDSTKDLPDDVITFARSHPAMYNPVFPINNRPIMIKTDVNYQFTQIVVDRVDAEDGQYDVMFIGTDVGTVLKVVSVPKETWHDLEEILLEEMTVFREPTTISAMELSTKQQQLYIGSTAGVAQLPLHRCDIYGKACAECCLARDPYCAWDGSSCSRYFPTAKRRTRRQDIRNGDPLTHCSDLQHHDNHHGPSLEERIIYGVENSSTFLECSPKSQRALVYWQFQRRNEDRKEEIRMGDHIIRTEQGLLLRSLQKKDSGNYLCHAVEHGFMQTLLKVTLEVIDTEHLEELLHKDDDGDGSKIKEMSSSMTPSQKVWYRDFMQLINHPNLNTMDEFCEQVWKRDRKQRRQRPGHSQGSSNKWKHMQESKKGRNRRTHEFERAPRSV
Assay: Inhibition of collapse activity by contact of Sema3A and the inhibitor (Pre-Mix)
Type: cell-based
Conditions: final concentration 0.05 μg/ml
Description: For example, the inhibitory activity of SPF-3059-1 for the binding of Sema3A to Neuropilin-1 was actually examined by using the alkaline phosphatase-fused Sema3A (=Sema3A-AP) and Neuropilin-1-expressing COS7 cells. SPF-3059-1 is a compound discovered by the present inventors, which inhibits both collapse and neurite outgrowth inhibition induced by semaphorin 3A (Sema3A). […] Further, in order to elucidate the mechanism of the said inhibition, that is, in order to elucidate whether SPF-3059-1 interacts with Sema3A or with its receptor, the comparison was made by measuring collapse activity between (1) the collapse activity which was observed when a sample, to which SPF-3059-1 and Sema3A were mixed in advance at the concentration raising sufficient inhibitory activity (0.25 μg/ml of SPF-3059-1), was added to the culture solution of dorsal root ganglions and (2) the collapse activity which was observed when Sema3A was added to the above-mentioned culture solution after the addition of SPF-3059-1. The final concentration of SPF-3059-1 (0.05 μg/ml) in the culture solution was the same both for (1) and (2). […] From the above considerations, SPF-3059-1 is thought to act by a mechanism in which the binding of Sema3A to the receptor is inhibited by the direct action of SPF-3059-1 on Sema3A. […]

CC(=O)c1c(C)c(C(=O)C2COc3cc(O)c(O)c(C(=O)O)c3C2=O)cc2c(=O)c3c(C(=O)O)c(O)c(O)cc3oc12 (centres unmarked) [SPF-3059-1]
inhibition of Sema3A collapse activity, Pre-Mix sample (Sema3A pre-mixed with 0.25 μg/ml compound): Sema3A activity was inhibited; also recorded: inhibition of collapse activity was observed
inhibition of Sema3A collapse activity, compound and Sema3A independently added: inhibitory activity will not be observed; also recorded: Inhibition of collapse activity was not observed
